In patent US9809597B2, “Ganciclovir derivatives for modulating innate and adaptive immunity and for use in immunotherapy” (The Board of Trustees of the Leland Stanford Junior …, priority 2015, dated 2017):

Key:
BV-2 microglia [1] = test: Secreted factors analyzed by Luminex array in BV-2 supernatants; format: cell-based, mouse
Procedure: (§1) BV-2 mouse microglia cells were grown in DMEM+10% FBS and THP-1 human monocyte cells were grown in RPMI-40+10% FBS+0.05 mM β-mercaptoethanol at 37° C., 5% CO2. Adherent cells were split using 1×TrypLE (Gibco). For cellular assays, cells were treated with the following concentrations of drugs as indicated in the DMEM without serum: 100-200 μM ganciclovir, 10 ng/ml IFNγ (R&D systems), 100 ng/ml LPS (Sigma-Aldrich), 1-10 μM Fludarabine (Selleckchem), 1 μM Ruxolitinib (Selleckchem), 1 μM TG-101348 (Selleckchem), 1 μM Amlexanox (Tocris bioscience) unless otherwise noted. All experiments were run in triplicates and replicated at least 3 times with cell lines and at least twice with primary microglia. Average data are shown for cell lines and representative data are shown for primary cells. Secreted signaling proteins were measured in supernatants from cultured cells stimulated with GCV and conditioned for 24 hours in the absence of serum using two independent Luminex arrays (Human Immune Monitoring Center, Stanford and Eve technologies, Canada). Nitrite assay was performed on conditioned culture supernatants of cells stimulated with drugs for 24 hours using the Griess Reagent System (Promega) according to manufacturer's instructions. To assess cellular viability, cell confluence was measured using an automated microscope (Cellavista; Roche).

[2] = system: wildtype and STING^gt/gt mice with EAE; conditions: mouse model for multiple sclerosis, therapeutic doses equivalent to those in humans (Ding et al. 2014); cited from earlier work
BV-2 cells = test: RT-PCR for CXCL10 and IFNβ transcripts in BV-2 cells; format: cell-based, mouse
Procedure: as §1
(§2) RNA was isolated from cells using RNeasy mini kit from Qiagen. DNased RNA was converted to cDNA using SuperScript III reverse transcriptase kit (Life technologies). The cDNA was used to quantify specific targets using SYBR green in Roche Lightcycler 480. ΔΔCt values normalized against the experimental control to determine fold change in mRNA for each sample compared to untreated or vehicle treated control. β-actin or Ubc or both were used as housekeeping genes. Primer sequences were obtained from PrimerBank. Fold change is shown compared to the vehicle treated or untreated cells, unless otherwise noted.

[3] = system: IFNγ/LPS stimulated BV-2 microglia; test: Nitrite assay (Griess) on culture supernatants; format: cell-based, mouse; conditions: 24 hours
Procedure: as §1

primary microglia = test: RT-PCR for CXCL10 and IFNβ transcripts in primary microglia (wildtype, tk KO, STING^gt/gt); format: cell-based, mouse; conditions: 200 μM, 6 hours
Procedure: Mice were housed and bred according to the Institutional Animal Care and Use Committee guidelines. Primary microglia and astrocytes were isolated from P0-P3 C57BL/6 mouse pups. Cortices from pups were isolated, meninges removed and tissue was dissociated using a 25-gauge needle. Two cortices were plated on each poly-L-lysine coated T-75 flasks in DMEM/F12+10% FBS+1% penicillin/streptomycin. Microglia and astrocyte co-cultures were maintained for 3 weeks, after which microglia were isolated using CD11b magnetic beads (Miltenyi Biotec) according to the manufacturer's instructions. Isolated microglia were allowed to recover for 1-2 days and processed for cellular assays described above.
For tk KO experiments only, microglia were isolated from adult mouse brains using the neural dissociation kit (Miltenyi Biotec) according to manufacturer's protocol followed by CD11b magnetic bead enrichment. Isolated cells were cultured for 3-4 days before the experiment.
as §2

BV-2 microglia [4] = test: Cell viability (cell confluence, automated microscope); format: cell-based, mouse; conditions: GCV dose response
Procedure: as §1

[5] = system: BV-2 and primary microglia stimulated with IFNγ and LPS; test: RT-PCR of inflammatory transcripts in IFNγ/LPS stimulated microglia; format: cell-based, mouse; conditions: 200 μM GCV, 24 hours
Procedure: BV-2 mouse microglia cells were grown in DMEM+10% FBS and THP-1 human monocyte cells were grown in RPMI-40+10% FBS+0.05 mM β-mercaptoethanol at 37° C., 5% CO2. Adherent cells were split using 1×TrypLE (Gibco). For cellular assays, cells were treated with the following concentrations of drugs as indicated in the DMEM without serum: 100-200 μM ganciclovir, 10 ng/ml IFNγ (R&D systems), 100 ng/ml LPS (Sigma-Aldrich), 1-10 μM Fludarabine (Selleckchem), 1 μM Ruxolitinib (Selleckchem), 1 μM TG-101348 (Selleckchem), 1 μM Amlexanox (Tocris bioscience) unless otherwise noted. All experiments were run in triplicates and replicated at least 3 times with cell lines and at least twice with primary microglia. Average data are shown for cell lines and representative data are shown for primary cells. Secreted signaling proteins were measured in supernatants from cultured cells stimulated with GCV and conditioned for 24 hours in the absence of serum using two independent Luminex arrays (Human Immune Monitoring Center, Stanford and Eve technologies, Canada). Nitrite assay was performed on conditioned culture supernatants of cells stimulated with drugs for 24 hours using the Griess Reagent System (Promega) according to manufacturer's instructions. To assess cellular viability, cell confluence was measured using an automated microscope (Cellavista; Roche). Mice were housed and bred according to the Institutional Animal Care and Use Committee guidelines. Primary microglia and astrocytes were isolated from P0-P3 C57BL/6 mouse pups. Cortices from pups were isolated, meninges removed and tissue was dissociated using a 25-gauge needle. Two cortices were plated on each poly-L-lysine coated T-75 flasks in DMEM/F12+10% FBS+1% penicillin/streptomycin. Microglia and astrocyte co-cultures were maintained for 3 weeks, after which microglia were isolated using CD11b magnetic beads (Miltenyi Biotec) according to the manufacturer's instructions. Isolated microglia were allowed to recover for 1-2 days and processed for cellular assays described above. RNA was isolated from cells using RNeasy mini kit from Qiagen. […] was converted to cDNA using SuperScript III reverse transcriptase kit (Life technologies). The cDNA was used to quantify specific targets using SYBR green in Roche Lightcycler 480. ΔΔCt values normalized against the experimental control to determine fold change in mRNA for each sample compared to untreated or vehicle treated control. β-actin or Ubc or both were used as housekeeping genes. Primer sequences were obtained from PrimerBank. Fold change is shown compared to the vehicle treated or untreated cells, unless otherwise noted.

[6] = BV-2 culture supernatants, no exogenous stimulation, 24 hours GCV
[7] = adult tk1 knockout primary microglia
[8] = primary microglia lacking functional STING
[9] = BV-2 and primary microglia stimulated with IFNγ and LPS
[10] = IFNγ/LPS-stimulated STING^gt/gt primary microglia

Nc1nc(O)c2ncn(COC(CO)CO)c2n1 [GCV, Ganciclovir]
CCL2 (BV-2 microglia [1]; 100 μM GCV, 24 hours): 28.8 ± 1.08 pg/mL | IL12p70 (BV-2 microglia [1]; 100 μM GCV, 24 hours): 0.34 ± 0.05 pg/mL | IL17A (BV-2 microglia [1]; 100 μM GCV, 24 hours): 3.5 ± 0.12 pg/mL | MCSF (BV-2 microglia [1]; 100 μM GCV, 24 hours): 23.76 ± 3.77 pg/mL | MIP1β (BV-2 microglia [1]; 100 μM GCV, 24 hours): 537.14 ± 449.94 ng/mL | MIP2 (BV-2 microglia [1]; 100 μM GCV, 24 hours): 14.77 ± 1.50 pg/mL | TGFβ (BV-2 microglia [1]; 100 μM GCV, 24 hours): 6.04 ± 0.58 pg/mL | VEGF (BV-2 microglia [1]; 100 μM GCV, 24 hours): 1.65 ± 0.51 pg/mL | CCL2 (BV-2 microglia [1]; 200 μM GCV, 24 hours): 28.25 ± 2.19 pg/mL | IL12p70 (BV-2 microglia [1]; 200 μM GCV, 24 hours): 0.16 ± 0.11 pg/mL | IL17A (BV-2 microglia [1]; 200 μM GCV, 24 hours): 2.54 ± 1.28 pg/mL | IL22 (BV-2 microglia [1]; 200 μM GCV, 24 hours): 3.09 ± 2.25 pg/mL | MCSF (BV-2 microglia [1]; 200 μM GCV, 24 hours): 25.48 ± 8.28 pg/mL | MIP1β (BV-2 microglia [1]; 200 μM GCV, 24 hours): 4.13 ± 3.36 ng/mL | MIP2 (BV-2 microglia [1]; 200 μM GCV, 24 hours): 13.02 ± 4.25 pg/mL | TGFβ (BV-2 microglia [1]; 200 μM GCV, 24 hours): 5.36 ± 3.30 pg/mL | VEGF (BV-2 microglia [1]; 200 μM GCV, 24 hours): 1.56 ± 0.27 pg/mL | secreted CCL5 protein (BV-2 microglia [1]; [6]): significantly increasing | secreted CXCL10 protein (BV-2 microglia [1]; [6]): significantly increasing | secreted IL-18 protein (BV-2 microglia [1]; [6]): decreasing | secreted IL-22 protein (BV-2 microglia [1]; [6]): significantly increasing | secreted TNFα protein (BV-2 microglia [1]; [6]): significantly increasing | disease course and pathology of EAE [2]: ameliorates the disease course and pathology | induction of CXCL10 mRNA on neutralization of IFNβ with an antibody (BV-2 cells; BV-2 cells, 200 μM with anti-IFNβ antibody, 4 hours): partly reduced | EC50 (BV-2 cells; Mus musculus, BV-2 microglia, dose response, read-out: EC50, increase of CXCL10 transcript): ~160 µM | induction of IFNβ transcript (BV-2 cells; microglia (BV-2, primary), 200 μM): induced | microglial nitric oxide production (nitrite assay) [3]: reduction | CXCL10 mRNA in microglia from tk1 knockout mice (primary microglia; [7]): at levels seen in treated wild type microglia | IFNβ mRNA in microglia from tk1 knockout mice (primary microglia; [7]): at levels seen in treated wild type microglia | induction of CXCL10 mRNA in STING^gt/gt primary microglia (primary microglia; [8]): failed to induce | induction of IFNβ mRNA in STING^gt/gt primary microglia (primary microglia; [8]): failed to induce | toxicity (cell viability) (BV-2 microglia [4]): without causing any toxicity | CCL2 transcript [5, 9]: almost complete transcriptional inhibition | iNOS transcript [5, 9]: almost complete transcriptional inhibition | iNOS and CCL2 transcripts in GCV treated STING^gt/gt microglia [5, 10]: higher | reduction of inflammatory markers in STING^gt/gt primary microglia [5, 10]: unable to do so | inflammatory markers in wildtype primary microglia ([5]; IFNγ/LPS-stimulated wildtype primary microglia): reduced
